Key:
[1] = tested on: pre-synaptic 5-HT1A receptor; experiment: Antagonism of hypothermia induced by 8-OH-DPAT in mice; format: in vivo; conditions: s.c., hypothermia induced by 0.5 mg/kg s.c. 8-OH-DPAT
Description: Antagonism of hypothermia induced by 8-OH-DPAT in mice:
The antagonistic effect of 5-HT1A receptor antagonists on hypothermia induced by 8-OH-DPAT was evaluated by the method of Moser (Moser, Eur. J. Pharmacol., 193, 165, 1991) with minor modifications.
Male CD-1 mice (28-38 g) obtained from Charles River (Italy) were housed in a climate-controlled room (temperature 22 ± 2°C; humidity 55 ± 15%) and maintained on a 12 h light/dark cycle with free access to food and water. On the day of experiment, mice were placed singly in clear plastic boxes under the same ambient conditions. Body temperature was measured by the insertion of a temperature probe (Termist TM-S, LSI) into the rectum to a depth of 2 cm. Rectal temperature was measured immediately prior to subcutaneous injection of the test compound and 30 min later. All animals then received 8-OH-DPAT (0.5 mg/kg s.c.) and their temperature was measured 30 min later. For each animal, temperature changes were calculated with respect to pretreatment values and the mean values were calculated for each treatment group.

[2] = tested on: post-synaptic 5-HT1A receptor; experiment: Inhibition of forepaw treading induced by 8-OH-DPAT in rats; format: in vivo; conditions: i.p., forepaw treading induced by 1 mg/kg s.c. 8-OH-DPAT
Description: Inhibition of forepaw treading induced by 8-OH-DPAT in rats:
Male Sprague-Dawley rats (150-175 g) obtained from Charles River (Italy), were housed in a climate-controlled room and maintained on a 12 h light/dark cycle with free access to food and water. On the day of experiment, rats were placed singly in clear plastic boxes. Reserpinised rats were treated with reserpine, 1 mg/kg s.c., 18-24 h before the test.
The appearance of the forepaw treading symptom induced by post-synaptic stimulation of the 5HT1A receptors was noted, and its intensity was scored using a ranked intensity scale in which: 0 = absent, 1 = equivocal, 2 = present and 3 = intense. Behavioural scores for each treated rat were accumulated over the time course (5 observation periods) and expressed as mean values of 8-10 rats.

O=C(C1CCCCC1)N(CCN1CCN(c2cccc3[nH]ccc23)CC1)c1ccccn1 [Compound B, N-{2-[4-(4-Indolyl)-1-piperazinyl]-ethyl}-N-(2-pyridyl)-cyclohexanecarboxamide]
ID50 (95%) C.L., antagonistic activity for the pre-synaptic 5-HT1A receptor [1]: 1.9 (1.0-3.7) µg/kg s.c.

COc1ccccc1N1CCN(CCCCN2C(=O)c3ccccc3C2=O)CC1 [NAN-190, 1-(2-methoxyphenyl)-4-[4-(2-phthalimido)-butyl]-piperazine]
NORMAL RATS ID50 ([2]; normal rats): 700 (500-1000) µg/Kg | RESERPINIZED RATS ID50 ([2]; reserpinized rats): 2000 (1600-2400) µg/Kg | ID50 (95%) C.L., antagonistic activity for the pre-synaptic 5-HT1A receptor [1]: not active

Reference: EP0906100B1, “USE OF 5-HT 1A? RECEPTOR ANTAGONISTS FOR THE TREATMENT OF URINARY INCONTINENCE” (RECORDATI S.A., priority 1996, dated 1997)
